What was measured:
[1] = target: T1, recombinant human Meningioma Expressed Antigen 5 (MGEA5), also referred to as O-GlcNAcase (OGA) (Homo sapiens, UniProt O60502); assay: OGA biochemical assay (inhibition of FM-GlcNAc hydrolysis, fluorescence); conditions: FM-GlcNAc substrate; for IC50: 6 h at room temperature, read-out: Enzymatic hOGA, pIC50 (converted); for Emax / Enzymatic Emax (%): maximal effect; for Emax: read-out: Enzymatic Emax (%)
T1 construct: Full length OGA enzyme was purchased at OriGene (cat #TP322411); purchased OriGene TP322411
T1 sequence (O60502 1-916): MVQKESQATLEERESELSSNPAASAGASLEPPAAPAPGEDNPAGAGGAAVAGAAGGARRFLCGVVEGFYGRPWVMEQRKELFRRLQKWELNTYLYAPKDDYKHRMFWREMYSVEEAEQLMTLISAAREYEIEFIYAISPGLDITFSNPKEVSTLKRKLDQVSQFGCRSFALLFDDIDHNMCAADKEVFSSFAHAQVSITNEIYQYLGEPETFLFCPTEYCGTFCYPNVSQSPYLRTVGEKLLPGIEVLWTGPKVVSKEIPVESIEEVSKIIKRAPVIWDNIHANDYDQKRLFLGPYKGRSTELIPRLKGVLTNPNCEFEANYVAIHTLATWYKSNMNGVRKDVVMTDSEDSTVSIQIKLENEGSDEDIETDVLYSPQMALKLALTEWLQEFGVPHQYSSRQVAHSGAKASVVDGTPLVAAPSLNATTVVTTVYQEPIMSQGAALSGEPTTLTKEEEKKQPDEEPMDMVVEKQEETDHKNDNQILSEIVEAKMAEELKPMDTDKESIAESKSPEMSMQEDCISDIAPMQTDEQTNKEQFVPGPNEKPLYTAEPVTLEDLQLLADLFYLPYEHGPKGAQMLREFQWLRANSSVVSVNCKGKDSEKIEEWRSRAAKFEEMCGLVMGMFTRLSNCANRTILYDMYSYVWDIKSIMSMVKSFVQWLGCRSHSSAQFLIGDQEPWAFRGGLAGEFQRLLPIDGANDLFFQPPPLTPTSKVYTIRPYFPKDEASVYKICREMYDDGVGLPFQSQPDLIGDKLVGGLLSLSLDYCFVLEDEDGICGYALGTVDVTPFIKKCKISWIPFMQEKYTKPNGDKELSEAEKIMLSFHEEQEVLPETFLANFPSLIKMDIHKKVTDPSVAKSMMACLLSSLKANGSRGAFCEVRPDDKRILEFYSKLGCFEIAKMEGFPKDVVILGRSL
Text: The assay is based on the inhibition of the hydrolysis of fluorescein mono-β-D-N-Acetyl-Glucosamine (FM-GlcNAc) (Mariappa et al. 2015, Biochem J 470:255) by the recombinant human Meningioma Expressed Antigen 5 (MGEA5), also referred to as O-GlcNAcase (OGA). The hydrolysis FM-GlcNAc (Marker Gene technologies, cat #M1485) results in the formation of β-D-N-glucosamineacetate and fluorescein. The fluorescence of the latter can be measured at excitation wavelength 485 nm and emission wavelength 538 nm. An increase in enzyme activity results in an increase in fluorescence signal. Full length OGA enzyme was purchased at OriGene (cat #TP322411). The enzyme was stored in 25 mM Tris.HCl, pH 7.3, 100 mM glycine, 10% glycerol at −20° C. Thiamet G and GlcNAcStatin were tested as reference compounds (Yuzwa et al. 2008 Nature Chemical Biology 4:483; Yuzwa et al. 2012 Nature Chemical Biology 8:393). The assay was performed in 200 mM Citrate/phosphate buffer supplemented with 0.005% Tween-20. 35.6 g Na2HPO4 2 H2O (Sigma, #C0759) were dissolved in 1 L water to obtain a 200 mM solution. 19.2 g citric acid (Merck, #1.06580) was dissolved in 1 L water to obtain a 100 mM solution. pH of the sodium phosphate solution was adjusted with the citric acid solution to 7.2. The buffer to stop the reaction consists of a 500 mM Carbonate buffer, pH 11.0. 734 mg FM-GlcNAc were dissolved in 5.48 mL DMSO to obtain a 250 mM solution and was stored at −20° C. OGA was used at a 2 nM concentration and FM-GlcNAc at a 100 uM final concentration. Dilutions were prepared in assay buffer.
50 nl of a compound dissolved in DMSO was dispensed on Black Proxiplate™ 384 Plus Assay plates (Perkin Elmer, #6008269) and 3 μl fl-OGA enzyme mix added subsequently. Plates were pre-incubated for 60 min at room temperature and then 2 μl FM-GlcNAc substrate mix added. […] Plates were briefly centrifuged for 1 min at 1000 rpm and incubate at room temperature for 6 h. To stop the reaction 5 μl STOP buffer were added and plates centrifuge again 1 min at 1000 rpm. Fluorescence was quantified in the Thermo Scientific Fluoroskan Ascent or the PerkinElmer EnVision with excitation wavelength 485 nm and emission wavelength 538 nm.
For analysis a best-fit curve is fitted by a minimum sum of squares method. From this an IC50 value and Hill coefficient was obtained. High control (no inhibitor) and low control (saturating concentrations of standard inhibitor) were used to define the minimum and maximum values.

OGA = target: T2, OGA (Homo sapiens, UniProt O60502); assay: OGA cellular assay (ICC detection of O-GlcNAcylated proteins in HEK293 cells inducible for P301L mutant human Tau); type: cell-based; conditions: for Emax: HEK293, HEK293 cells inducible for P301L mutant human Tau; for Emax / Cellular Emax (%): maximum defined by Thiamet G at 200 uM; for EC50 / Cellular Emax (%): HEK293 cells inducible for P301L mutant human Tau; for EC50: 6 hours incubation, ICC O-GlcNAcylation, read-out: Cellular hOGA, pEC50 (converted)
T2 construct: endogenous in cells; host or cells: HEK293 cells inducible for P301L mutant human Tau (isoform 2N4R)
T2 sequence (O60502 1-916): T1 sequence (O60502 1-916)
Procedure: HEK293 cells inducible for P301L mutant human Tau (isoform 2N4R) were established at Janssen. Thiamet-G was used for both plate validation (high control) and as reference compound (reference EC50 assay validation). OGA inhibition is evaluated through the immunocytochemical (ICC) detection of O-GlcNAcylated proteins by the use of a monoclonal antibody (CTD110.6; Cell Signaling, #9875) detecting O-GlcNAcylated residues as previously described (Dorfmueller et al. 2010 Chemistry & biology, 17:1250). Inhibition of OGA will result in an increase of O-GlcNAcylated protein levels resulting in an increased signal in the experiment. Cell nuclei are stained with Hoechst to give a cell culture quality control and a rough estimate of immediate compounds toxicity, if any. ICC pictures are imaged with a Perkin Elmer Opera Phenix plate microscope and quantified with the provided software Perkin Elmer Harmony 4.1.
Cells were propagated in DMEM high Glucose (Sigma, #D5796) following standard procedures. 2 days before the cell assay cells are split, counted and seeded in Poly-D-Lysine (PDL) coated 96-wells (Greiner, #655946) plate at a cell density of 12,000 cells per cm^2 (4,000 cells per well) in 100 μl of Assay Medium (Low Glucose medium is used to reduce basal levels of GlcNAcylation) (Park et al. 2014 The Journal of biological chemistry 289:13519). At the day of compound test medium from assay plates was removed and replenished with 90 μl of fresh Assay Medium. 10 μl of compounds at a 10 fold final concentration were added to the wells. Plates were centrifuged shortly before incubation in the cell incubator for 6 hours. DMSO concentration was set to 0.2%. Medium is discarded by applying vacuum. For staining of cells medium was removed and cells washed once with 100 μl D-PBS (Sigma, #D8537). From next step onwards unless other stated assay volume was always 50 μl and incubation was performed without agitation and at room temperature. Cells were fixed in 50 μl of a 4% paraformaldehyde (PFA, Alpha aesar, #043368) PBS solution for 15 minutes at room temperature. […] Before analysis samples were washed 2 times manually for 5 minutes in ICC base buffer.
Imaging is performed using Perkin Elmer Phenix Opera using a water 20× objective and recording 9 fields per well. Intensity readout at 488 nm is used as a measure of O-GlcNAcylation level of total proteins in wells. To assess potential toxicity of compounds nuclei were counted using the Hoechst staining. IC50-values are calculated using parametric non-linear regression model fitting. As a maximum inhibition Thiamet G at a 200 uM concentration is present on each plate. In addition, a concentration response of Thiamet G is calculated on each plate.

IC50 [1]	Emax [1]	Emax (OGA)	EC50 (OGA)	Enzymatic Emax (%) [1]	Cellular Emax (%) (OGA)	Structure (SMILES)
2.51 nM	101%	77%	20 nM			Cc1cc(O[C@@H]2CCN(C(C)c3nc4c(cc3F)CCO4)C2)cc(C)n1 (some centres unmarked) [Product 17]
> 10000 nM	40%	-3%	> 1000 nM			COc1cc(C[C@@H]2CN([C@@H](C)c3ccc4c(n3)OCCO4)C[C@H]2C)cc(C)n1 (stereo in doubt) [Product 124]
316 nM	100%	17%	> 1000 nM			Cc1cc(CC2(C)CCN(C(C)c3ccc4c(n3)OCCO4)C2)cc(C)n1 (centres unmarked) [Product 58]
50.1 nM		35%	> 1000 nM	102%		CC(c1cc2c(cc1F)OCCO2)N1CC[C@H](Cc2ncc(F)cc2F)C1 (single isomer, unassigned) [Product 29]
7940 nM			> 1000 nM	50%	−9%	Cc1cc(O[C@@H]2CCN(C(C)c3ccc4c(n3)OCCO4)C2)cc(C)n1 (single isomer, unassigned) [Product 74]
7940 nM			> 1000 nM	54%	−6%	Cc1cc(C[C@@H]2CCN(C(C)c3cnc4c(c3)OCCO4)C2)cc(C)n1 (single isomer, unassigned) [Product 35]
7.94 nM	98%	85%	100 nM			Cc1cc(C[C@@H]2CCN(C(C)c3nc4c(cc3F)OCCO4)C2)cc(C)n1 (mixture of isomers) [Product 79]
1000 nM	91%	1%	> 1000 nM			COc1cc(OC[C@@H]2CCN(C(C)c3ccc4c(n3)OCCO4)C2)cc(C)n1 (some centres unmarked) [Product 48]
631 nM	97%	9%	> 1000 nM			Cc1cc(OC[C@H]2CCN(C(C)c3ccc4c(n3)OCCO4)C2)cc(C)n1 (some centres unmarked) [Product 47]
50.1 nM	99%	47%	> 1000 nM			COc1cc(C[C@H]2CN([C@H](C)c3ccc4c(n3)OCCO4)C[C@@H]2C)cc(C)n1 (stereo in doubt) [Product 121]
> 10000 nM			> 1000 nM	19%	2%	CC(c1ccc2c(n1)OCCO2)N1CC[C@@H](Oc2ccc(C#N)nn2)C1 (single isomer, unassigned) [Product 54]
126 nM	100%	45%				Cc1cc(C[C@H]2CCN(C(C)c3ccc4c(n3)OCCO4)C2)cc(C(F)(F)F)n1 (some centres unmarked) [Product 5]
10 nM			251 nM	100%	74%	Cc1cc(O[C@@H]2CCN(C(C)c3nc4c(cc3F)OCCO4)C2)cc(C)n1 (some centres unmarked) [Product 39]
7.94 nM	100%		158 nM		84%	Cc1cc(O[C@@H]2CCN(C(C)c3nc4c(cc3F)OCCO4)C2)cc(C)n1 (single isomer, unassigned) [Product 40]
3.16 nM	102%	100%	15.8 nM			COc1cc(C[C@H]2CCN(C(C)c3nc4c(cc3F)CCO4)C2)cc(C)n1 (single isomer, unassigned) [Product 84]
31.6 nM	100%	49%	631 nM			Cc1cc(C[C@@H]2CCN(C(C)c3cnc4c(c3)OCCN4)C2)cc(C)n1 (mixture of isomers) [Product 118]
15.8 nM	101%	72%	126 nM			Cc1cc(C[C@H]2CCN([C@@H](C)c3cc4c(cc3F)OCCO4)C2)cc(C)n1 [Product 32]
10 nM	101%	81%	251 nM			COc1cc(C[C@H]2CCN([C@@H](C)c3cc4c(cc3F)NCCO4)C2)cc(C)n1 (racemic) [Product 82]
631 nM	94%	9%	> 1000 nM			Cc1cc(CO[C@@H]2CCN(C(C)c3ccc4c(n3)OCCO4)C2)cc(C)n1 (mixture of isomers) [Product 115]
79.4 nM	100%	39%	> 1000 nM			COc1cc(CC2(C)CCN(C(C)c3ccc4c(n3)OCCO4)C2)cc(C)n1 (single isomer, unassigned) [Product 95]
39.8 nM	101%	71%	398 nM			Cc1cc(C[C@H]2CCN(C(C)c3cnc4c(c3)OCCN4)C2)cc(C)n1 (mixture of isomers) [Product 80]
